Assay results reported in US9227971B2, “Pyrazolo[1,5-a]pyrimidine compounds as mTOR inhibitors” (Merck Sharp & Dohme Corp., priority 2010, dated 2016).
Where two headings read alike, the source gives them in different places.

Assays:
[1] = system: phosphorylated 4E-BP1 Thr37/46 (p4E-BP1 Thr37/46), mTORC1 activity, PC3 cells; experiment: mTOR target engagement assay, immunofluorescent cell-based, p4E-BP1 Thr37/46 readout (mTORC1 activity); details: read-out: p4E-BP1 Thr37/46 IC50
Summary of the method: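 Cell-based immunofluorescence in PC3 cells: serially diluted compounds (0.25% DMSO, 5% FBS) applied for ninety minutes at 37° C before fixation and overnight 4° C staining of p4E-BP1 Thr37/46. Untreated DMSO wells set maximal phosphorylation; IC50 obtained by logistic fitting.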

[2] = system: phosphorylated AKT Ser473 (pAKT S473), mTORC2 activity, PC3 cells; experiment: mTOR target engagement assay, immunofluorescent cell-based, pAKT S473 readout (mTORC2 activity)
Summary of the method: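 After blocking, cells were stained overnight at 4 °C with anti-pAKT S473 antibody, then a fluorescent secondary; inhibition was read as reduced fluorescence intensity.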

[3] = Homo sapiens, PC-3, PC3 cells, compound treatment ninety minutes at 37° C.
[4] = Homo sapiens, PC-3, Table 6-1, PC3 cells
[5] = Homo sapiens, PC-3, Table 3-1, PC3 cells

## CC(=O)c1c(C2CC3CS(=O)(=O)CC(C2)N3C(=O)c2nc[nH]n2)nc2c(-c3ccc(-c4ccccc4)nc3)cnn2c1N (stereo not drawn) [Compound 8.38, endo/exo-7-[6-acetyl-7-amino-3-(6-phenyl-3-pyridinyl)pyrazolo[1,5-a]pyrimidin-5-yl]-9-(4h-1,2,4-triazol-3-ylcarbonyl)-3-thia-9-azabicyclo[3.3.1]nonane, 3,3-dioxide]
[1]; Homo sapiens, PC-3, PC3 cells
  IC50: 100 to 1000 nM
[2]; Homo sapiens, PC-3, PC3 cells
  IC50: 100 to 1000 nM

## CC(=O)N1[C@@H]2CC[C@H]1C[C@H](c1nc3c(-c4ccc(-c5ncc(C)s5)nc4)cnn3c(N)c1S(C)(=O)=O)C2 [Compound 3.182, 1-((1R,3s,5S)-3-(7-amino-6-(methylsulfonyl)-3-(6-(5-methylthiazol-2-yl)pyridin-3-yl)pyrazolo[1,5-a]pyrimidin-5-yl)-8-azabicyclo[3.2.1]octan-8-yl)ethanone]
[1]; Table 3-1, PC3 cells
  IC50: 100 to 1000 nM
[2]; Table 3-1, PC3 cells
  IC50: 100 to 1000 nM

## Nc1c(C2CC2)c([C@@H]2C[C@H]3CC[C@@H](C2)N3C(=O)c2nnc[nH]2)nc2c(-c3ccc(-c4ccc(OC(F)F)cc4)nc3)cnn12 [Compound 4.15, ((1R,3s,5S)-3-(7-amino-6-cyclopropyl-3-(6-(4-(difluoromethoxy)phenyl)pyridin-3-yl)pyrazolo[1,5-a]pyrimidin-5-yl)-8-azabicyclo[3.2.1]octan-8-yl)(4H-1,2,4-triazol-3-yl)methanone]
[1]; [3]
  IC50: 100 to 1000 nM
[2]; [3]
  IC50: 100 to 1000 nM

## CC(=O)c1c([C@@H]2C[C@H]3CC[C@@H](C2)N3C(=O)c2cc[nH]c2)nc2c(-c3ccc(-c4ncc[nH]4)nc3)cnn2c1N [Compound 6.11, 1-(3-(6-(1H-imidazol-2-yl)pyridin-3-yl)-5-((1R,3s,5S)-8-(1H-pyrrole-3-carbonyl)-8-azabicyclo[3.2.1]octan-3-yl)-7-aminopyrazolo[1,5-a]pyrimidin-6-yl)ethanone]
[1]; [4]
  IC50: 1 to 100 nM
[2]; [4]
  IC50: 1 to 100 nM

## Nc1c(C2CC2)c([C@@H]2C[C@H]3CC[C@@H](C2)N3C(=O)NO)nc2c(-c3ccc(-c4ccccc4)nc3)cnn12 [Compound 4.32, (1R,3s,5S)-3-(7-amino-6-cyclopropyl-3-(6-phenylpyridin-3-yl)pyrazolo[1,5-a]pyrimidin-5-yl)-N-hydroxy-8-azabicyclo[3.2.1]octane-8-carboxamide]
[1]; [3]
  IC50: 1 to 100 nM
[2]; [3]
  IC50: 1 to 100 nM

## COc1ccc(-c2ccc(-c3cnn4c(N)c(C(C)=O)c([C@@H]5C[C@H]6CC[C@@H](C5)N6C(=O)c5nnc[nH]5)nc34)cn2)cc1F [Compound 1.1.57, 1-(5-((1R,3s,5S)-8-(4H-1,2,4-triazole-3-carbonyl)-8-azabicyclo[3.2.1]octan-3-yl)-7-amino-3-(6-(3-fluoro-4-methoxyphenyl)pyridin-3-yl)pyrazolo[1,5-a]pyrimidin-6-yl)ethanone]
[1]; [3]
  IC50: 1 to 100 nM
[2]; [3]
  IC50: 1 to 100 nM

## N#Cc1c([C@@H]2C[C@H]3CC[C@@H](C2)N3C(=O)c2nc[nH]n2)nc2c(-c3ccc(-c4ccccc4)nc3)cnn2c1N [Compound 5.2, 5-((1R,3s,5S)-8-(1H-1,2,4-triazole-3-carbonyl)-8-azabicyclo[3.2.1]octan-3-yl)-7-amino-3-(6-phenylpyridin-3-yl)pyrazolo[1,5-a]pyrimidine-6-carbonitrile]
[1]; [3]
  IC50: 1 to 100 nM
[2]; [3]
  IC50: 1 to 100 nM

## CS(=O)(=O)c1c([C@@H]2C[C@H]3CC[C@@H](C2)N3C(N)=O)nc2c(-c3ccc(-c4ccc(F)cc4)nc3)cnn2c1N [Compound 3.126, (1R,3s,5S)-3-(7-amino-3-(6-(4-fluorophenyl)pyridin-3-yl)-6-(methylsulfonyl)pyrazolo[1,5-a]pyrimidin-5-yl)-8-azabicyclo[3.2.1]octane-8-carboxamide]
[1]; [5]
  IC50: 1 to 100 nM
[2]; [5]
  IC50: 1 to 100 nM

## N#C/N=C(\N)N1[C@@H]2CC[C@H]1C[C@H](c1cc(N)n3ncc(-c4ccc(-c5ccccc5)nc4)c3n1)C2 [Compound 8.86]
[1]; Homo sapiens, PC-3, PC3 cells
  IC50: 1000 to 10000 nM
[2]; Homo sapiens, PC-3, PC3 cells
  IC50: 1000 to 10000 nM

## CCc1c([C@@H]2C[C@H]3CC[C@@H](C2)N3C(=O)c2nc(C)n[nH]2)nc2c(-c3ccc(-c4ccccc4)nc3)cnn2c1N [Compound 5.9, ((1R,3s,5S)-3-(7-amino-6-ethyl-3-(6-phenylpyridin-3-yl)pyrazolo[1,5-a]pyrimidin-5-yl)-8-azabicyclo[3.2.1]octan-8-yl)(3-methyl-1H-1,2,4-triazol-5-yl)methanone]
[1]; [3]
  IC50: 1 to 100 nM
[2]; [3]
  IC50: 1 to 100 nM

## CC(=O)c1c(N2C3CCC2CN(C(=O)c2nnc[nH]2)C3)nc2c(-c3ccc(-c4ccccc4)nc3)cnn2c1N [Compound 8.5, 1-(5-(3-(4H-1,2,4-triazole-3-carbonyl)-3,8-diazabicyclo[3.2.1]octan-8-yl)-7-amino-3-(6-phenylpyridin-3-yl)pyrazolo[1,5-a]pyrimidin-6-yl)ethanone]
[1]; Homo sapiens, PC-3, PC3 cells
  IC50: 1000 to 10000 nM
[2]; Homo sapiens, PC-3, PC3 cells
  IC50: 100 to 1000 nM

## Nc1c(C2CC2)c([C@@H]2C[C@H]3CC[C@@H](C2)N3C(=O)c2nnc[nH]2)nc2c(-c3ccc(C(N)(C(F)(F)F)C(F)(F)F)nc3)cnn12 [Compound 7.85, ((1R,3s,5S)-3-(7-amino-3-(6-(2-amino-1,1,1,3,3,3-hexafluoropropan-2-yl)pyridin-3-yl)-6-cyclopropylpyrazolo [1,5-a]pyrimidin-5-yl)-8-azabicyclo[3.2.1]octan-8-yl)(4H-1,2,4-triazol-3-yl)methanone]
[1]; Homo sapiens, PC-3, PC3 cells
  IC50: 1000 to 10000 nM
[2]; Homo sapiens, PC-3, PC3 cells
  IC50: 1000 to 10000 nM

## CC(=O)c1c([C@@H]2C[C@H]3CC[C@@H](C2)N3C(=O)c2cnn[nH]2)nc2c(-c3ccc(C(C)(C)O)nc3)cnn2c1N [Compound 7.10, 1-(5-((1R,3s,5S)-8-(1H-1,2,3-triazole-5-carbonyl)-8-azabicyclo[3.2.1]octan-3-yl)-7-amino-3-(6-(2-hydroxypropan-2-yl)pyridin-3-yl)pyrazolo[1,5-a]pyrimidin-6-yl)ethanone]
[1]; [3]
  IC50: 100 to 1000 nM
[2]; [3]
  IC50: 100 to 1000 nM

## CS(=O)(=O)c1c([C@H]2CC3CC[C@H](C2)N3C(=O)NO)nc2c(-c3ccc(-c4ccccc4)nc3)cnn2c1N [Compound 3.172, (1R,3s,5S)-3-(7-amino-6-(methylsulfonyl)-3-(6-phenylpyridin-3-yl)pyrazolo[1,5-a]pyrimidin-5-yl)-N-hydroxy-8-azabicyclo[3.2.1]octane-8-carboxamide]
[1]; [5]
  IC50: 1 to 100 nM
[2]; [5]
  IC50: 100 to 1000 nM

## Nc1cc([C@@H]2C[C@H]3CC[C@@H](C2)N3C(=O)c2nnc[nH]2)nc2c(-c3ccc4[nH]ncc4c3)cnn12 [Compound 2.12, ((1R,3s,5S)-3-(7-amino-3-(1H-indazol-5-yl)pyrazolo[1,5-a]pyrimidin-5-yl)-8-azabicyclo[3.2.1]octan-8-yl)(1H-1,2,4-triazol-5-yl)methanone]
[1]; [3]
  IC50: > 10000 nM
[2]; [3]
  IC50: > 10000 nM

## Nc1c(C2CC2)c([C@H]2CC3CC[C@H](C2)N3C(=O)c2nnc[nH]2)nc2c(-c3cnc4c(c3)OCCC4O)cnn12 (stereo partly drawn) [Compound 7.64, ((1R,3s,5S)-3-(7-amino-6-cyclopropyl-3-(4-hydroxy-3,4-dihydro-2H-pyrano[3,2-b]pyridin-7-yl)pyrazolo[1,5-a]pyrimidin-5-yl)-8-azabicyclo[3.2.1]octan-8-yl)(4H-1,2,4-triazol-3-yl)methanone]
[1]; Homo sapiens, PC-3, PC3 cells
  IC50: 100 to 1000 nM
[2]; Homo sapiens, PC-3, PC3 cells
  IC50: 100 to 1000 nM

## Cc1nc(C(=O)N2[C@@H]3CC[C@H]2C[C@H](c2nc4c(-c5ccc(-c6csc(C)n6)nc5)cnn4c(N)c2S(C)(=O)=O)C3)n[nH]1 [Compound 3.199, ((1R,3s,5S)-3-(7-amino-6-(methylsulfonyl)-3-(6-(2-methylthiazol-4-yl)pyridin-3-yl)pyrazolo[1,5-a]pyrimidin-5-yl)-8-azabicyclo[3.2.1]octan-8-yl)(5-methyl-1H-1,2,4-triazol-3-yl)methanone]
[1]; [5]
  IC50: 100 to 1000 nM
[2]; [5]
  IC50: 1 to 100 nM

## Nc1c(Br)c([C@@H]2C[C@H]3CC[C@@H](C2)N3C(=O)c2nc[nH]n2)nc2c(-c3ccc(-c4ccccc4)nc3)cnn12 [Compound 2.1, ((1R,3s,5S)-3-(7-amino-6-bromo-3-(6-phenylpyridin-3-yl)pyrazolo[1,5-a]pyrimidin-5-yl)-8-azabicyclo[3.2.1]octan-8-yl)(1H-1,2,4-triazol-3-yl)methanone]
[1]; [3]
  IC50: 1 to 100 nM
[2]; [3]
  IC50: 100 to 1000 nM

## Nc1c(C2CC2)c([C@@H]2C[C@H]3CC[C@@H](C2)N3C(=O)c2nnc[nH]2)nc2c(-c3cnc4c(c3)OCc3cn[nH]c3-4)cnn12 [Compound 8.55]
[1]; Homo sapiens, PC-3, PC3 cells
  IC50: 1000 to 10000 nM
[2]; Homo sapiens, PC-3, PC3 cells
  IC50: 1000 to 10000 nM

## CC(=O)c1c([C@@H]2C[C@H]3CC[C@@H](C2)N3C(=O)CO)nc2c(-c3ccc(-c4ncn(C)n4)nc3)cnn2c1N [Compound 1.1.89, 1-((1R,3s,5S)-3-(6-acetyl-7-amino-3-(6-(1-methyl-1H-1,2,4-triazol-3-yl)pyridin-3-yl)pyrazolo[1,5-a]pyrimidin-5-yl)-8-azabicyclo[3.2.1]octan-8-yl)-2-hydroxyethanone]
[1]; [3]
  IC50: 100 to 1000 nM
[2]; [3]
  IC50: 100 to 1000 nM

## CS(=O)(=O)c1c([C@@H]2C[C@H]3CC[C@@H](C2)N3C(=O)c2nc(C(F)(F)F)n[nH]2)nc2c(-c3ccc(-c4ccccc4)nc3)cnn2c1N [Compound 3.99, ((1R,3s,5S)-3-(7-amino-6-(methylsulfonyl)-3-(6-phenylpyridin-3-yl)pyrazolo[1,5-a]pyrimidin-5-yl)-8-azabicyclo[3.2.1]octan-8-yl)(3-(trifluoromethyl)-1H-1,2,4-triazol-5-yl)methanone]
[1]; [5]
  IC50: 1000 to 10000 nM
[2]; [5]
  IC50: 1000 to 10000 nM
